From ChEMBL document CHEMBL1201862, “PubChem BioAssay data set” (2004)
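Cells were grown in 96-well plates and exposed to each compound for 48 hours at five concentrations; endpoints were interpolated linearly between bracketing concentrations, or set to the highest concentration if not reached. The concentration for 50% growth inhibition is given as GI50.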 Activity calls are given as the source filed them. Rule as the data show it: active = GI50 up to about 1.1 µM and inactive = higher.

Legend:
Test in all cases: inhibition of tumour cell growth, NCI panel, 48 h
CAKI-1 = test system: CAKI-1
HOP-92 = test system: HOP-92
NCI-H23 = test system: NCI-H23
PC-3 = test system: PC-3
EKVX = test system: EKVX
U-251 = test system: U-251
NCI-H226 = test system: NCI-H226
SK-OV-3 = test system: SK-OV-3
COLO 205 = test system: COLO 205
HOP-62 = test system: HOP-62
Malme-3M = test system: Malme-3M
OVCAR-5 = test system: OVCAR-5
CCRF-CEM = test system: CCRF-CEM
RPMI-8226 = test system: RPMI-8226
MDA-N = test system: MDA-N
HL-60 = test system: HL-60
MOLT-4 = test system: MOLT-4
SN12C = test system: SN12C
LOX IMVI = test system: LOX IMVI

| SMILES | GI50 (CAKI-1) | GI50 (HOP-92) | GI50 (NCI-H23) | GI50 (PC-3) | GI50 (EKVX) | GI50 (U-251) | GI50 (NCI-H226) | GI50 (SK-OV-3) | GI50 (COLO 205) | GI50 (HOP-62) | GI50 (Malme-3M) | GI50 (OVCAR-5) | GI50 (CCRF-CEM) | GI50 (RPMI-8226) | GI50 (MDA-N) | GI50 (HL-60) | GI50 (MOLT-4) | GI50 (SN12C) | GI50 (LOX IMVI) |
| --- | --- | --- | --- | --- | --- | --- | --- | --- | --- | --- | --- | --- | --- | --- | --- | --- | --- | --- | --- |
| O=C(O)[C@@H]1CCC(=O)N1C(c1ccc2c(c1)OCO2)c1ccc2c(c1)OCO2 | > 100 µM (inactive) | > 100 µM (inactive) | > 100 µM (inactive) | > 100 µM (inactive) | > 100 µM (inactive) | > 100 µM (inactive) | > 100 µM (inactive) | > 10 µM (inactive) | > 100 µM (inactive) | > 100 µM (inactive) | > 100 µM (inactive) | > 100 µM (inactive) | > 10 µM (inactive) | > 100 µM (inactive) | > 100 µM (inactive) | > 100 µM (inactive) | > 100 µM (inactive) | > 100 µM (inactive) | > 100 µM (inactive) |
| C#CC1(O)C(COP(=O)(O)OCC2OC(n3ccc(NCCCCCCCCCCCCCCCCCC)nc3=O)C(O)C2O)OC(n2ccc(N)nc2=O)C1O (stereo unspecified) | 0.161 µM (active) | 21.2 µM (inactive) | 3.73 µM (inactive) | 1.8 µM (inactive) | 8.24 µM (inactive) | 0.959 µM (active) | 0.757 µM (active) | 8.13 µM (inactive) | 0.71 µM (active) | 4.04 µM (inactive) | 0.745 µM (active) | 5.36 µM (inactive) | 0.929 µM (active) | 0.142 µM (active) | 1.14 µM (inactive) | 0.298 µM (active) | 0.418 µM (active) | 0.488 µM (active) | 0.048 µM (active) |
| C=C[C@@]1(C)CC2(C=C(CO)C(O)O2)Oc2c1c(=O)oc1cccc(C)c21 (stereo partly specified) | 4.61 µM (inactive) | 20.2 µM (inactive) | 7.45 µM (inactive) | 15.6 µM (inactive) | 17.1 µM (inactive) | 10.9 µM (inactive) | 17.9 µM (inactive) | 24.4 µM (inactive) | 9.08 µM (inactive) | 17.5 µM (inactive) | 4.85 µM (inactive) | 17.6 µM (inactive) | 1.58 µM (inactive) | 0.822 µM (active) | 4.03 µM (inactive) | 1.77 µM (inactive) | 2.1 µM (inactive) | 9.86 µM (inactive) | 3.61 µM (inactive) |
| O=[N+]([O-])c1ccc2c(c1)nc(Cc1ccc(Cl)cc1)n2C[C@@H]1CCCN2CCCCC12 (stereo partly specified) | 15.2 µM (inactive) | 6.47 µM (inactive) | 14.9 µM (inactive) | 20.2 µM (inactive) | 8.39 µM (inactive) | 18.6 µM (inactive) | 16.6 µM (inactive) | 18.9 µM (inactive) | 10.4 µM (inactive) | 20.5 µM (inactive) | 9.16 µM (inactive) | 15.5 µM (inactive) | 11.8 µM (inactive) | 26.3 µM (inactive) | 12.9 µM (inactive) | 28.9 µM (inactive) | 10.9 µM (inactive) | 13.6 µM (inactive) | 13.7 µM (inactive) |
| NC(=S)SCCC(=O)O | > 100 µM (inactive) | > 100 µM (inactive) | > 100 µM (inactive) | > 100 µM (inactive) | > 100 µM (inactive) | > 100 µM (inactive) | > 100 µM (inactive) | > 100 µM (inactive) | > 100 µM (inactive) | > 100 µM (inactive) | > 100 µM (inactive) | > 100 µM (inactive) | > 100 µM (inactive) | > 100 µM (inactive) | > 100 µM (inactive) | > 100 µM (inactive) | > 100 µM (inactive) | > 100 µM (inactive) | > 100 µM (inactive) |
| CCOC(=O)C(Cc1c2ccccc2cc2ccccc12)(NC(C)=O)C(=O)OCC | 20 µM (inactive) | 14.2 µM (inactive) | > 100 µM (inactive) | 50 µM (inactive) | > 100 µM (inactive) | > 80.5 µM (inactive) | 62.1 µM (inactive) | > 100 µM (inactive) | > 53.2 µM (inactive) | > 56 µM (inactive) | > 100 µM (inactive) | > 100 µM (inactive) | 56.4 µM (inactive) | > 100 µM (inactive) | > 83.9 µM (inactive) | 34.4 µM (inactive) | 25.8 µM (inactive) | > 100 µM (inactive) | > 100 µM (inactive) |
| COC(=O)N1CC2(CO)C3CC=C(C(=O)Nc4ccccc4Br)C2C1C3Br (stereo unspecified) | > 50 µM (inactive) | > 50 µM (inactive) | > 50 µM (inactive) | > 50 µM (inactive) | > 50 µM (inactive) | > 50 µM (inactive) | > 50 µM (inactive) | > 50 µM (inactive) | > 50 µM (inactive) | > 50 µM (inactive) | > 50 µM (inactive) | > 50 µM (inactive) | > 50 µM (inactive) | > 50 µM (inactive) | > 50 µM (inactive) | > 50 µM (inactive) | > 50 µM (inactive) |  | > 50 µM (inactive) |
| CCC1=[N+](CC)CCN1CC | > 100 µM (inactive) | > 100 µM (inactive) | > 100 µM (inactive) | > 100 µM (inactive) | > 100 µM (inactive) | > 100 µM (inactive) | > 100 µM (inactive) | > 100 µM (inactive) | > 100 µM (inactive) | > 100 µM (inactive) | > 100 µM (inactive) | > 100 µM (inactive) | > 100 µM (inactive) | > 100 µM (inactive) | > 100 µM (inactive) | > 100 µM (inactive) | > 100 µM (inactive) | > 100 µM (inactive) | > 100 µM (inactive) |
| CN(C)c1ccc2c(c1)oc(=O)c1ccccc12 | 11.4 µM (inactive) | 12.3 µM (inactive) | 8.05 µM (inactive) | 15.7 µM (inactive) | 16.7 µM (inactive) | 11.2 µM (inactive) | 15.3 µM (inactive) |  | 12.2 µM (inactive) | 29.2 µM (inactive) | 11.8 µM (inactive) | 15.5 µM (inactive) | 4.24 µM (inactive) | 3.59 µM (inactive) | 6.27 µM (inactive) | 3.69 µM (inactive) | 16.9 µM (inactive) | 12.8 µM (inactive) | 6.14 µM (inactive) |
| CC1CC[C@]2(C(=O)O)CCC3(C)C(=C2[C@H]1C)C=CC1[C@@]2(C)CC[C@H](O)C(C)(C)C2CC[C@]13C (stereo partly specified) | 22.8 µM (inactive) | 18.7 µM (inactive) | 24.9 µM (inactive) | 21.1 µM (inactive) | 32.8 µM (inactive) | 29 µM (inactive) | 66.1 µM (inactive) | 16.6 µM (inactive) | 44.4 µM (inactive) | 21.1 µM (inactive) | 26.6 µM (inactive) | 39.5 µM (inactive) | 29.7 µM (inactive) | 12.2 µM (inactive) | 56.9 µM (inactive) | 18.6 µM (inactive) | 23.7 µM (inactive) | 59.3 µM (inactive) | 33.1 µM (inactive) |
| Clc1cc(Cl)nc(Nc2ccc3c(c2)CCC3)n1 | 28.2 µM (inactive) | 32.8 µM (inactive) | 39.6 µM (inactive) | 61.9 µM (inactive) | 20 µM (inactive) | 62.5 µM (inactive) | 45 µM (inactive) | > 100 µM (inactive) | 24 µM (inactive) |  | 28.6 µM (inactive) | 77.8 µM (inactive) | 30.3 µM (inactive) | 16.5 µM (inactive) | 40.1 µM (inactive) | 36.7 µM (inactive) | 13.8 µM (inactive) | 45.4 µM (inactive) | 32.1 µM (inactive) |
